From ChEMBL document CHEMBL4507291 (2021)

What was measured:
[1] = target: Muscarinic acetylcholine receptor M2 (Homo sapiens) (UniProt P08172); details: Compound concentration 10.0 uM
[2] = target: T1, Tyrosine-protein kinase ZAP-70 (Homo sapiens) (UniProt P43403); assay: ZAP70 Kinase screen; details: Compound concentration 1.0 uM
T1 sequence (whole entry): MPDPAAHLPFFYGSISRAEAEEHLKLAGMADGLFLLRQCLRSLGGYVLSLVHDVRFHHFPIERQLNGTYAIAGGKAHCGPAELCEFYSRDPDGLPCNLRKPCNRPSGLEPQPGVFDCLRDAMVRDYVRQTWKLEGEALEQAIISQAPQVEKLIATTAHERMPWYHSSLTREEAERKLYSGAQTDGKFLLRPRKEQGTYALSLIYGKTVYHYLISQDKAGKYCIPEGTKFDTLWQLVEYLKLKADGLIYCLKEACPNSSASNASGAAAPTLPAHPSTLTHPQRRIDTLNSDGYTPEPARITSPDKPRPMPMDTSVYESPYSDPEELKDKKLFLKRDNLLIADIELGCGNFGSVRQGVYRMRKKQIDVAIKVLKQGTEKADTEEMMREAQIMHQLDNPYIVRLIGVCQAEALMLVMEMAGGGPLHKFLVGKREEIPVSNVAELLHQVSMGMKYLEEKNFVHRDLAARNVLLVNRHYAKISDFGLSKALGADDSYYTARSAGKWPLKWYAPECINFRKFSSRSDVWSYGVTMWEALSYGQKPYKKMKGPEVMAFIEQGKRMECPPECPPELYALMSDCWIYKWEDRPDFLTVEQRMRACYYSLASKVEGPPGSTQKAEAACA

[3] = target: High affinity choline transporter 1 (Homo sapiens) (UniProt Q9GZV3); assay: Transporter, Choline Eurofins-Panlabs radioligand binding assay; set-up: ligand concentration 0.75 nM; details: Rattus norvegicus; Compound concentration 10.0 uM
[4] = target: Serine/threonine-protein kinase Nek6 (Homo sapiens) (UniProt Q9HC98); assay: NEK6 Kinase screen; details: Compound concentration 1.0 uM
[5] = tested on: Mast/stem cell growth factor receptor Kit (Homo sapiens), P10721 [T670I]; assay: KIT T670I Kinase screen; details: Compound concentration 1.0 uM
[6] = target: T2, TGF-beta receptor type-1 (Homo sapiens) (UniProt P36897); assay: TGFBR1 (ALK5) Kinase screen; details: Compound concentration 1.0 uM
T2 sequence (whole entry): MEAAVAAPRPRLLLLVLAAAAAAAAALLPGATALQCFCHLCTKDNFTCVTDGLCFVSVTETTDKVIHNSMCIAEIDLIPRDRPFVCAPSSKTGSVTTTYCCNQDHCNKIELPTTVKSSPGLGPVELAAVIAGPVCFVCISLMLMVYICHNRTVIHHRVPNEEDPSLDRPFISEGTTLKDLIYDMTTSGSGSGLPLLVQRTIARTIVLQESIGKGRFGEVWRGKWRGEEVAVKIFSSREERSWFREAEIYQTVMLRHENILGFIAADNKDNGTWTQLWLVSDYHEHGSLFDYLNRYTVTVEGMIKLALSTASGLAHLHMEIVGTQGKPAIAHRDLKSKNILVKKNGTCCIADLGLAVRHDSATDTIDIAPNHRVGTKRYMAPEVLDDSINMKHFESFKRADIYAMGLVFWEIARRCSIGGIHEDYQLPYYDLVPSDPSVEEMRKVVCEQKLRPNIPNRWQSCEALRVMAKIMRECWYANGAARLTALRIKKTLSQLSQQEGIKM

[7] = target: Kappa-type opioid receptor (Homo sapiens) (UniProt P41145); details: Compound concentration 10.0 uM
Kappa-type opioid receptor (Homo sapiens), sequence (P41145 whole entry): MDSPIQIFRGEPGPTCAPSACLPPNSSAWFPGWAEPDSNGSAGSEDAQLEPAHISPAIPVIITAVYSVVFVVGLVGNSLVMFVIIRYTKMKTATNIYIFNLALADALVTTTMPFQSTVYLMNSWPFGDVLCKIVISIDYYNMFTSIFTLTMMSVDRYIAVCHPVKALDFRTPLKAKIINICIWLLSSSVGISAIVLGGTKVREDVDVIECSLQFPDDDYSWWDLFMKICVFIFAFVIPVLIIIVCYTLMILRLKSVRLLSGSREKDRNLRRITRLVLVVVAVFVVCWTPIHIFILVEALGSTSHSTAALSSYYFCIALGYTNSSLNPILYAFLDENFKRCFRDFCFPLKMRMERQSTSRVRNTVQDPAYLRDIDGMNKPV

[8] = target: SRSF protein kinase 3 (Homo sapiens) (UniProt Q9UPE1); assay: STK23 (MSSK1) Kinase screen; details: Compound concentration 1.0 uM
SRSF protein kinase 3 (Homo sapiens), sequence (Q9UPE1 whole entry): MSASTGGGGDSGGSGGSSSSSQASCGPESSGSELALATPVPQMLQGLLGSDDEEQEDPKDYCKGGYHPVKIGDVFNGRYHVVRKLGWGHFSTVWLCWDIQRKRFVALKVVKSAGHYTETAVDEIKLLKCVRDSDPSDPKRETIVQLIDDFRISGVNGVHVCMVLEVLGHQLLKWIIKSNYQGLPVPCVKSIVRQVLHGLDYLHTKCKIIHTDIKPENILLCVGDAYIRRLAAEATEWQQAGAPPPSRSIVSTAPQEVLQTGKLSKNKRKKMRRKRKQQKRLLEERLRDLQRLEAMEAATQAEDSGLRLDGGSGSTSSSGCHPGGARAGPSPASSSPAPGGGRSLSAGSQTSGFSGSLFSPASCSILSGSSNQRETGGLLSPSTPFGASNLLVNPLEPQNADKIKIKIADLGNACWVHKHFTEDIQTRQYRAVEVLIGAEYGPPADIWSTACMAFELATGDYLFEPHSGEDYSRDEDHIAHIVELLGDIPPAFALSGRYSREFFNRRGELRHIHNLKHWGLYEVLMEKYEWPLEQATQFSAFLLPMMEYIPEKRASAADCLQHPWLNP

[9] = target: ATP-sensitive inward rectifier potassium channel 11 (Cricetulus griseus) (UniProt A0A3L7HHE1); assay: Inhibition of Potassium Channel [KATP] at 10 µM in the Eurofins-Panlabs radioligand binding assay (Eurofins_assay_265600); details: Cricetinae; Compound concentration 10.0 uM
ATP-sensitive inward rectifier potassium channel 11 (Cricetulus griseus), sequence (A0A3L7HHE1 as listed by the source): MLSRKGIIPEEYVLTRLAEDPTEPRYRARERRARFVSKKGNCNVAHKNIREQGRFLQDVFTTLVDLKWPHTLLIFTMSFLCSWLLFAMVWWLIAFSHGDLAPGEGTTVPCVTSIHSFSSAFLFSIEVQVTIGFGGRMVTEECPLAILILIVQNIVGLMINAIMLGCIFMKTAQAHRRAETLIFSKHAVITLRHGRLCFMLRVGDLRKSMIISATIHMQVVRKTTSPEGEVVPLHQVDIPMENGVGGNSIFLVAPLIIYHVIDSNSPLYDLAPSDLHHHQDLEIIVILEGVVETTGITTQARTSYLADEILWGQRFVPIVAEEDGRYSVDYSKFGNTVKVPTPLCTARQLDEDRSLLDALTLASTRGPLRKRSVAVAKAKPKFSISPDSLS

[10] = target: Muscarinic acetylcholine receptor M3 (Homo sapiens) (UniProt P20309); details: Compound concentration 10.0 uM
[11] = target: Acetylcholinesterase (Homo sapiens) (UniProt P22303); details: Compound concentration 10.0 uM
[12] = target: CDK9/Cyclin K (Homo sapiens) (UniProt P50750+O75909); assay: CDK9/cyclin K Kinase screen; type: protein-complex assay; details: Compound concentration 1.0 uM
[13] = target: RAC-beta serine/threonine-protein kinase (Homo sapiens) (UniProt P31751); assay: AKT2 (PKB beta) Kinase screen; details: Compound concentration 1.0 uM
RAC-beta serine/threonine-protein kinase (Homo sapiens), sequence (P31751 whole entry): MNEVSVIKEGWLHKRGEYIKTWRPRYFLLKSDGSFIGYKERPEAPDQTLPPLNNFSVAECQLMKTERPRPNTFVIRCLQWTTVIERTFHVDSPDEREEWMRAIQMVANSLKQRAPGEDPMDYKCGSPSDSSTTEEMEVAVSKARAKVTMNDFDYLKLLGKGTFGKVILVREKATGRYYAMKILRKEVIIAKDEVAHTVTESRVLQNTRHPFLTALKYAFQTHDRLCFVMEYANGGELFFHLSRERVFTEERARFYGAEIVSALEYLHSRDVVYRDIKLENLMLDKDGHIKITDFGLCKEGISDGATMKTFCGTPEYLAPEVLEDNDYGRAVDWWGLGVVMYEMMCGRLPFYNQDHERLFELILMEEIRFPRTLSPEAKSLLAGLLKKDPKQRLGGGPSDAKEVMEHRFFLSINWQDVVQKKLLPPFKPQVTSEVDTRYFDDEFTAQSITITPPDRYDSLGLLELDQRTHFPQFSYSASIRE

[14] = target: Serine/threonine-protein kinase SIK2 (Homo sapiens) (UniProt Q9H0K1); assay: SNF1LK2 Kinase screen; details: Compound concentration 1.0 uM
Serine/threonine-protein kinase SIK2 (Homo sapiens), sequence (Q9H0K1 whole entry, looked up): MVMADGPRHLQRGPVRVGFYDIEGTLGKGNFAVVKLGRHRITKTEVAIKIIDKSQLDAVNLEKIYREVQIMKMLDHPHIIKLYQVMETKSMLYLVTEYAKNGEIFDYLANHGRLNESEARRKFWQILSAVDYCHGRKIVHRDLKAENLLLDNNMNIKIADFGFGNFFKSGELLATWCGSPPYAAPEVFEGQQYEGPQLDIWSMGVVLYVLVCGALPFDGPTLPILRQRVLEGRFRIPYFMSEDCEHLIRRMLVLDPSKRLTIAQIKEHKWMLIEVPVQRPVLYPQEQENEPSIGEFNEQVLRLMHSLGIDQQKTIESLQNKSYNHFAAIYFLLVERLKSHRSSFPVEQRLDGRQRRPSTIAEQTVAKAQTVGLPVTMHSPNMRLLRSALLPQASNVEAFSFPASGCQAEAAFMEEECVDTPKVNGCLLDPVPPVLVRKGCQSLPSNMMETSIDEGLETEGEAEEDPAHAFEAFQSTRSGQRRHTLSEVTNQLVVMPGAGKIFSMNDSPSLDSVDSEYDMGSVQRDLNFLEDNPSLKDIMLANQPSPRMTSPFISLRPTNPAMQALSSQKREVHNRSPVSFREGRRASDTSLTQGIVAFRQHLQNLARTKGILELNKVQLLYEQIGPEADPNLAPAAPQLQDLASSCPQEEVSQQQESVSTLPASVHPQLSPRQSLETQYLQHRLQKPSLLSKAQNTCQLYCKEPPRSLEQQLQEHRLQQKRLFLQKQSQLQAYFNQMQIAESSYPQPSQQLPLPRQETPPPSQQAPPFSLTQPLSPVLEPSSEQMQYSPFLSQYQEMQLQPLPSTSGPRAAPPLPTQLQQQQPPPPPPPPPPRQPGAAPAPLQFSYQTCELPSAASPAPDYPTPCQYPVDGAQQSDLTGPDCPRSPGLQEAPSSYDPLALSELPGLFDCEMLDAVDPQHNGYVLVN

[15] = target: Phosphatidylinositol 3-kinase catalytic subunit type 3 (Homo sapiens) (UniProt Q8NEB9); assay: PIK3C3 (hVPS34) Kinase screen; details: Compound concentration 1.0 uM
Phosphatidylinositol 3-kinase catalytic subunit type 3 (Homo sapiens), sequence (Q8NEB9 whole entry): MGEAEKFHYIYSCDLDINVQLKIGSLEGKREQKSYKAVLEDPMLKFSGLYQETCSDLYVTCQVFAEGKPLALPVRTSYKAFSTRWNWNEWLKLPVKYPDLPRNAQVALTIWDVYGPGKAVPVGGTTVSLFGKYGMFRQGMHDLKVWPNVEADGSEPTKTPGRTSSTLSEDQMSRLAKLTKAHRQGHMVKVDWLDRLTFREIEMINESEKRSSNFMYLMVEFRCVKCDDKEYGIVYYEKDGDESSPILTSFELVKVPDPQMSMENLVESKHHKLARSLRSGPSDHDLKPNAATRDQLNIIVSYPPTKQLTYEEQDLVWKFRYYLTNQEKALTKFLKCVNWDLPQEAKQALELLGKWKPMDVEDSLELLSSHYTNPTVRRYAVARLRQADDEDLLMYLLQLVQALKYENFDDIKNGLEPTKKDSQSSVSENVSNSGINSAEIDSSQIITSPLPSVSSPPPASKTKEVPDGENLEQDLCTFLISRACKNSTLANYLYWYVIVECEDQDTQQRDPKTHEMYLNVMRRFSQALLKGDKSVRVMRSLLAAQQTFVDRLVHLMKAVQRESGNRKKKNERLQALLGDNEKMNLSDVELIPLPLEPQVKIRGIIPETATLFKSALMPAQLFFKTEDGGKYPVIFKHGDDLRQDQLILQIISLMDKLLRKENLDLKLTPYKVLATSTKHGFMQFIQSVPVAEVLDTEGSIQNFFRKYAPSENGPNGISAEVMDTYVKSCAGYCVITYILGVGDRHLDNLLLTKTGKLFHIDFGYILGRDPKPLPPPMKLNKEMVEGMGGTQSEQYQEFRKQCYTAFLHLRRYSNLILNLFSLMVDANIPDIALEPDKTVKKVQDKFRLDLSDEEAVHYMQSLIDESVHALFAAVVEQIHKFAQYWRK

[16] = target: Fibroblast growth factor receptor 4 (Homo sapiens) (UniProt P22455); assay: FGFR4 Kinase screen; details: Compound concentration 1.0 uM
[17] = target: Histamine H1 receptor (Homo sapiens) (UniProt P35367); details: Compound concentration 10.0 uM
[18] = target: T3, Inhibitor of nuclear factor kappa-B kinase subunit alpha (Homo sapiens) (UniProt O15111); assay: CHUK (IKK alpha) Kinase screen; details: Compound concentration 1.0 uM
T3 sequence (whole entry): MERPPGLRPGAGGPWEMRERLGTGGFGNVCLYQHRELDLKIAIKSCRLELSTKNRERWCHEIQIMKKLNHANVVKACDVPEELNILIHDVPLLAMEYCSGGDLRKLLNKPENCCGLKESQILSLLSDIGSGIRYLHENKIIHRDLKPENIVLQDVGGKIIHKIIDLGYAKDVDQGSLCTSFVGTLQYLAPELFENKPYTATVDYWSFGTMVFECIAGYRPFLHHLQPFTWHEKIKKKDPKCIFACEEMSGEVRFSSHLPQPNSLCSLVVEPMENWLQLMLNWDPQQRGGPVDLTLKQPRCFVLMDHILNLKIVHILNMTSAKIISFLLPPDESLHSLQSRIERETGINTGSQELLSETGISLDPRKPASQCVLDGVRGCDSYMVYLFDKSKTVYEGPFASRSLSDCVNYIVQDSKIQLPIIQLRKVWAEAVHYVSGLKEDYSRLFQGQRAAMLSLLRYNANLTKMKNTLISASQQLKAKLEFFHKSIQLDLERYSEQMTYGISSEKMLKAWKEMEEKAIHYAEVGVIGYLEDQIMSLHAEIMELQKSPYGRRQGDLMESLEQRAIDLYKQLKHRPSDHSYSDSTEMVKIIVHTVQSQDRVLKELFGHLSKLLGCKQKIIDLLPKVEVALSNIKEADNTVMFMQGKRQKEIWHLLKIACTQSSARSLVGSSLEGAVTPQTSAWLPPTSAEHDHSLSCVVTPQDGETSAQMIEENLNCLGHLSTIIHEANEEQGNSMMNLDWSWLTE

[19] = target: 5-hydroxytryptamine receptor 6 (Homo sapiens) (UniProt P50406); assay: Inhibition of Serotonin (5-Hydroxytryptamine) 5-HT6 at 10 µM in the Eurofins-Panlabs radioligand binding assay (Eurofins_assay_272200); details: Compound concentration 10.0 uM
[20] = target: MAP/microtubule affinity-regulating kinase 3 (Homo sapiens) (UniProt P27448); assay: Protein Serine/Threonine Kinase, MARK3 Eurofins-Panlabs enzyme assay; details: Compound concentration 10.0 uM
MAP/microtubule affinity-regulating kinase 3 (Homo sapiens), sequence (P27448 whole entry, looked up): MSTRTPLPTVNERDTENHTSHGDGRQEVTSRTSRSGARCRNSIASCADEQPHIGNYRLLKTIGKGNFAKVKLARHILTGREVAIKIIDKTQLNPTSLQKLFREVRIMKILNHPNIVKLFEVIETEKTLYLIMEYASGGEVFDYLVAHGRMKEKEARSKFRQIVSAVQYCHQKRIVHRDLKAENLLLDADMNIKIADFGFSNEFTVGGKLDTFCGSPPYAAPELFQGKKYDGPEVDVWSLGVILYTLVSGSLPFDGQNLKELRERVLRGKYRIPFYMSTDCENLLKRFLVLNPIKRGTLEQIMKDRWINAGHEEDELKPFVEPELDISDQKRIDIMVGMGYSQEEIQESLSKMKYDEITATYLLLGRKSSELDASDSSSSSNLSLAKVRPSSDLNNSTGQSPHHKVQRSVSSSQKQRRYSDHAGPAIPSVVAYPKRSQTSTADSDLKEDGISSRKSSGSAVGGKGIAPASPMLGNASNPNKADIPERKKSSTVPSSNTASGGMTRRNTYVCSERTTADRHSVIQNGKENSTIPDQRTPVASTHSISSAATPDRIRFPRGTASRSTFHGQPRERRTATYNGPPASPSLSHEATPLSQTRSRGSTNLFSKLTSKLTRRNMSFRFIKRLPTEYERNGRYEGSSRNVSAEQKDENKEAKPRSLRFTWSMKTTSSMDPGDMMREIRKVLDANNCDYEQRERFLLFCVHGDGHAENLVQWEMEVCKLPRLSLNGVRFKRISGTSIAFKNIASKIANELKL

Measured: inhibition

Muscarinic acetylcholine receptor M2 (Homo sapiens), sequence (P08172 whole entry): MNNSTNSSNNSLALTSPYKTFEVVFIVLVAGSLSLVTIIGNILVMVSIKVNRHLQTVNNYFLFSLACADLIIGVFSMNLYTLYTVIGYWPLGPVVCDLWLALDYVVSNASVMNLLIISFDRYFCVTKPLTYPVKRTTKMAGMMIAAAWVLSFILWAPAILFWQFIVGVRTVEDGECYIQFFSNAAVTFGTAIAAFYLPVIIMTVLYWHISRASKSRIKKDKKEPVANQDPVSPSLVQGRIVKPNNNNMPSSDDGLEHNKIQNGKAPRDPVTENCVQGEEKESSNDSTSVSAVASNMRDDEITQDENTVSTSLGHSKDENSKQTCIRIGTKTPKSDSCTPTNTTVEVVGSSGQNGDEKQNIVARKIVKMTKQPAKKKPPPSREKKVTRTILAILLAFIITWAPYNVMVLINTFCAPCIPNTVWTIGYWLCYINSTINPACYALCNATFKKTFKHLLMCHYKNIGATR

C[C@@H]1CN(c2cc(-c3nn(C)c4ccc(OC5(C)CC5)cc34)ncn2)C[C@H](C)O1 [MLi-2-NC]
inactive: [1] 21%

C[C@@H]1CN(c2cc(-c3n[nH]c4ccc(OC5(C)CC5)cc34)ncn2)C[C@H](C)O1 [MLi-2]
inactive: [2] 10.2% | [3] 18% | [4] 4.75% | [5] -0.692% | [6] 0.904% | [7] 19% | [8] 11.9% | [9] 18% | [10] 26% | [11] -2% | [12] -2.24% | [13] 5.53% | [14] 7.08% | [15] 19.4% | [16] 14.8% | [17] -4% | [18] 8.17% | [19] 3% | [20] 11%
